A value given as a limit tells only on which side of the number the result lay.

One assay has as its system hIL17. As to the kind of experiment: IL-17 release from differentiated primary human T-cells (IL-17A HTRF assay). The assay is classed as cell-based. The following applies: inhibition of IL-17A levels; primary human CD4+ T cells differentiated into Th17 cells, 46-hour incubation. The procedure:
D. IL-17 Release from Differentiated Primary Human T-Cells and Cell Viability
Primary human cryopreserved CD4+ T Cells (Lonza, donor #0000402103) were plated in Lymphocyte Growth Medium-3 (LGM-3, Lonza) according to the manufacturer's recommendations, and allowed to recover for approximately 3 hours at 37° C. with 5% CO2 in a humidified atmosphere. After the recovery step, cells were collected by centrifugation and re-plated in 96-well plates at a density of ˜140,000 cells per well in LGM-3 medium that contained DMSO (vehicle) or test compound (2-500 nM or 4-1000 nM concentration range). Triplicate wells were plated for each test condition. DMSO (final concentration ≤0.1%) was used as the vehicle. Immediately after plating, CD4+ T cells were activated by adding Dynabeads Human T-Activator CD3/CD28 (Life Technologies; bead-to-cell ratio of 1:2.5) and differentiated into Th17 cells by adding a mixture of the following cytokines: transforming growth factor-β (TGF-β, 5 ng/mL), IL-6 (20 ng/mL), IL-23 (20 ng/mL), and […] (10 ng/mL). Undifferentiated control cells received only cytokine IL-2 (50 ng/mL). All human recombinant cytokines were purchased from R&D Systems. Following a 46-hour incubation at 37° C. with 5% CO2 in a humidified atmosphere, the plates were centrifuged for 3 minutes at 250×g, and half of the supernatant was transferred to a new plate to be used in the IL-17A assay (see below). Cell viability was assessed in the original plate using the CyQuant Direct Assay (Life Technologies). CyQuant values from test compound samples were normalized to those from DMSO-treated samples. The concentration of IL-17A in the supernatant was measured using the Homogeneous Time-Resolved Fluorescence (HTRF) assay (Cisbio Bioassays) according to the manufacturer's protocol. The assay was performed at room temperature in low volume, solid white 384-well plates (Greiner Bio-One). Samples and standards (serially-diluted human recombinant IL-17A (0 to 5,000 pg/mL concentration range; Cisbio Bioassays) were incubated with the anti-human IL-17A antibody conjugate for 16 hours and fluorescence was measured using a Pherastar FS microplate reader (BMG Labtech) in the HTRF mode (excitation at 337 nm and emission at 665 nm and 620 nm). IL-17A concentrations were assessed in duplicate aliquots of supernatant from each well resulting in a total of six readings per test condition. The 665 nm/620 nm signal ratio was calculated and the concentration of IL-17A in each sample was determined by interpolation from the standard curve. IL-17A values from test compound samples were normalized to those from DMSO-treated samples. Data were analyzed using GraphPad Prism version 6.00 for Windows (GraphPad Software, La Jolla Calif. USA). A non-linear regression analysis with log (inhibitor) vs. normalized response using a variable slope was applied to fit the data and determine the IC50 values for inhibition of IL-17A levels and cell viability.
A general note: Time-resolved FRET reads energy transfer from a long-lived donor to a nearby acceptor.

In another assay the test system is NRF2. As to the kind of experiment: AREc32 luciferase reporter assay. The assay is classed as cell-based, human. The conditions noted are these: EC2×: concentration required to increase GST ARE Luciferase reporter activity by 2-fold; AREc32 cells, 19 hours. The source says: B. AREc32 Luciferase Reporter Assay
The AREc32 luciferase reporter assay allows for quantitative assessment of the endogenous activity of the Nrf2 transcription factor in cultured mammalian cells. AREc32 cells are derived from MCF-7 human breast carcinoma cells that were stably transfected with a reporter construct that contains the firefly luciferase gene located downstream of eight copies of the rat GSTA2 antioxidant response element (ARE) sequence (Wang et al., 2006; CXR Biosciences). Active NRF2 binds to the ARE sequences and increases expression of the firefly luciferase gene. To assess the NRF2-activating potential of the test compounds, AREc32 cells were plated in black 96-well plates at a density of 20,000 cells per well in triplicate in DMEM+10% FBS+0.8 mg/mL Geneticin and incubated at 37° C. with 5% CO2 in a humidified atmosphere. The next day, cells were treated with DMSO (vehicle) or test compound (concentration ranges of 0.4-200 nM or 2-1000 nM) for 19 hours. Luciferase activity was determined using the ONE-Glo Luciferase assay (Promega). The luminescence signal was measured on a BMG Pherastar microplate reader. The mean luminescence value from test compound-treated wells was normalized to that from DMSO-treated wells and was represented as fold-induction. Data were analyzed using GraphPad Prism version 6.00 for Windows, GraphPad Software, La Jolla Calif. USA. A non-linear regression curve with log (agonist) vs. response using a variable slope was used to fit the data. Where applicable, a maximum threshold value of 50-fold over DMSO was set. EC2× values were interpolated from the curve. EC2× corresponds to the concentration of test compound required to increase GST ARE Luciferase reporter activity by 2-fold.
For orientation: A reporter such as luciferase makes a cellular process visible.

Assay [1] deals with IFNγ-induced Nitric Oxide production. The assay is described as follows: Nitric oxide production assay in RAW 264.7 mouse macrophages. The conditions noted are these: RAW264.7, suppression of IFNγ-induced NO production normalized to cell viability (WST-1), RAW 264.7, 24 hours IFNγ. It counts as cell-based. The method, then:
A. Nitric Oxide Production Assay and Cell Viability
RAW 264.7 mouse macrophages were plated in 96-well plates at a density of 30,000 cells per well in triplicate in RPMI 1640+0.5% FBS and incubated at 37° C. with 5% CO2 in a humidified atmosphere. The next day, cells were pre-treated with DMSO (vehicle) or test compound (concentration ranges of 0.4-200 nM or 2-1000 nM) for 2 hours and then treated with recombinant mouse IFNγ (R&D Systems) for 24 hours. Nitric oxide concentration in media was determined using the Griess reagent system (Promega). Cell viability was determined using WST-1 reagent (Roche). Values from test compound samples were normalized to those from DMSO/IFNγ-treated samples. IC50 values were determined based on the suppression of IFNγ-induced Nitric Oxide production normalized to cell viability.
For orientation: Tetrazolium dyes change colour on reduction, which living cells bring about.

Another assay has as its target T1, human RORγ (Homo sapiens, UniProt P51449).
T1 sequence (P51449 269-508 limits assumed): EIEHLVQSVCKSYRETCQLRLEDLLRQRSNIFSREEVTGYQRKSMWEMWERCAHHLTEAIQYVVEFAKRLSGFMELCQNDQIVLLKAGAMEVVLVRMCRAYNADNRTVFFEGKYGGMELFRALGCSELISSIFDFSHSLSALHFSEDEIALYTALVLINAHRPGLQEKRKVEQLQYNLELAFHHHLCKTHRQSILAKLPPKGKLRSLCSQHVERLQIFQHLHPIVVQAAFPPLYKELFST
As to the kind of experiment: RORγ assay (GAL4-RORγ hybrid luciferase reporter, inverse-agonist activity). It counts as cell-based. The following applies: GAL4-RORγ hybrid reporter cells, 23 hours. The source says: C. RORγ Assay and Cell Viability
The RORγ assay system was purchased from Indigo Biosciences. This nuclear receptor assay utilizes a human cell line that has been engineered to express a hybrid form of the Human RAR-related Orphan Receptor Gamma (RORγ) at high levels. The N-terminal DNA binding domain (DBD) of the native RORγ receptor was substituted with the yeast GAL4-DBD to generate the GAL4-RORγ hybrid nuclear receptor. The reporter cell line is transfected with a plasmid that encodes the beetle luciferase gene under the control of the GAL4 upstream activating sequence (UAS). GAL4 binds to the UAS and increases transcription of downstream target genes. […] To assess the RORγ inverse-agonist activity of the test compounds, reporter cells were plated in white 96-well plates in triplicate and were treated with DMSO (vehicle) or test compound (concentration ranges of 0.4-200 nM or 2-1000 nM) at 37° C. with 5% CO2 in a humidified atmosphere for 23 hours. After this incubation, luciferin was added to the wells and luciferase activity was determined by measuring the luminescence signal using a BMG Pherastar microplate reader. Viability was determined using the Live Cell Multiplex Assay (Indigo Biosciences). Values from test compound samples were normalized to those from DMSO-treated samples. Data were analyzed using GraphPad Prism version 6.00 for Windows (GraphPad Software, La Jolla Calif. USA). A non-linear regression analysis with log (inhibitor) vs. normalized response using a variable slope was applied to fit the data and determine the IC50 values for inhibition of RORγ and cell viability.

Take `COC(=O)[C@]12CCC(C)(C)C[C@H]1[C@H]1C(=O)C=C3[C@@]4(C)C=C(C#N)C(=O)[C@](C)(C(=O)OC)[C@@H]4CC[C@@]3(C)[C@]1(C)CC2` [Compound T3, dimethyl (4R,4aR,6aS,6bR,8aS,12aS,12bR,14bS)-2-cyano-4,6a,6b, 11,11,14b-hexamethyl-3,13-dioxo-4,4a,5,6,6a,6b,7,8,9,10,11,12,12a,12b,13,14b-hexadecahydropicene-4,8a(3H)-dicarboxylate]: the IC50 came out at 18 nM in the assay with hIL17, 22.3 nM in assay [1] and 169 nM on human RORγ. Also, the “EC2x: concentration giving 2-fold induction of ARE luciferase reporter” value in the assay on NRF2 was 48 nM.
Taken in the same sequence, the figures for `CNC(=O)[C@]1(C)C(=O)C(C#N)=C[C@]2(C)C3=CC(=O)[C@]45OC(=O)[C@@]6(CCC(C)(C)C[C@H]64)CC[C@@]5(C)[C@]3(C)CC[C@@H]12` [Compound T35, (4S,4aR,6aR,6bS,8aS,12aR,12bS,14bS)-2-cyano-N,4,6a,6b, 11,11,14b-heptamethyl-3,13,16-trioxo-4,4a,5,6,6a,6b,7,8,10,11,12,12a,13,14b-tetradecahydro-3H,9H-12b,8a-(epoxymethano)picene-4-carboxamide] were 68 nM, above 1000 nM, 413 nM and above 1000 nM.
Taken in the same sequence, the figures for `COC(=O)[C@]12CCC(C)(C)C[C@H]1[C@H]1C(=O)C=C3[C@@]4(C)C=C(C#N)C(=O)C[C@@H]4CC[C@@]3(C)[C@]1(C)CC2` [Compound T1] were 40 nM, 8.1 nM, 144 nM and 50 nM.
Taken in the same sequence, the figures for `COC(=O)[C@]12CCC(C)(C)C[C@H]1[C@H]1C(=O)C=C3[C@@]4(C)C=C(C#N)C(=O)[C@@](C)(COC(=O)c5ccccc5)[C@@H]4CC[C@@]3(C)[C@]1(C)CC2` [Compound T9, methyl (4aS,6aR,6bS,8aR,9R,12aS,14aR,14bS)-9-((benzoyloxy)methyl)-11-cyano-2,2,6a,6b,9,12a-hexamethyl-10,14-dioxo-1,3,4,5,6,6a,6b,7,8,8a,9,10,12a,14,14a,14b-hexadecahydropicene-4a(2H)-carboxylate] were 37 nM, 191 nM, 361 nM and 962 nM.
In the case of `COC(=O)[C@]12CCC(C)(C)C[C@H]1[C@H]1C(=O)C=C3[C@@]4(C)C=C(C#N)C(=O)[C@@H](C)[C@@H]4CC[C@@]3(C)[C@]1(C)CC2` [Comparison Compound #1, reference compound], the IC50 worked out at 25 nM in the assay on hIL17, 1.2 nM in assay [1] and 127 nM at human RORγ. For the same molecule, the “EC2x: concentration giving 2-fold induction of ARE luciferase reporter” value with NRF2 stood at 11 nM.
Taken in the same sequence, the figures for `COC[C@]1(C)C(=O)C(C#N)=C[C@]2(C)C3=CC(=O)[C@@H]4[C@@H]5CC(C)(C)CC[C@]5(C(=O)OC)CC[C@@]4(C)[C@]3(C)CC[C@H]21` [Compound T20] were 21 nM, 15.6 nM, 223 nM and 175 nM.
For the molecule `COC(=O)[C@]12CCC(C)(C)C[C@H]1[C@@]1(O)C(=O)C=C3[C@@]4(C)C=C(C#N)C(=O)C(C)(C)[C@@H]4CC[C@@]3(C)[C@]1(C)CC2` [Comparison Compound #5, reference compound], the IC50 in the assay with hIL17 came to 15 nM; in assay [1], 1.6 nM; on human RORγ, 135 nM. In addition, in the assay with NRF2, the “EC2x: concentration giving 2-fold induction of ARE luciferase reporter” value is on record as 2 nM.
Turning to `C[C@H](O)[C@]1(C)C(=O)C(C#N)=C[C@]2(C)C3=CC(=O)[C@]45OC(=O)[C@@]6(CCC(C)(C)C[C@H]64)CC[C@@]5(C)[C@]3(C)CC[C@@H]12` [Compound T48, (4R,4aR,6aR,6bS,8aS,12aR,12bS,14bS)-4-((S)-1-hydroxyethyl)-4,6a,6b, 11,11,14b-hexamethyl-3,13,16-trioxo-4,4a,5,6,6a,6b,7,8,10,11,12,12a,13,14b-tetradecahydro-3H,9H-12b,8a-(epoxymethano)picene-2-carbonitrile], the 50% inhibitory concentration (IC50) with hIL17 was found to be 13 nM; in assay [1], 1.2 nM; on human RORγ, 162 nM. Moreover, in the assay on NRF2, the “EC2x: concentration giving 2-fold induction of ARE luciferase reporter” value was determined as 3 nM.

As usually defined, the IC50 is the concentration at which inhibition is half-maximal.

The values above are taken from patent publication US11584775B2, “C4-modified oleanolic acid derivatives for inhibition of IL-17 and other uses” (REATA PHARMACEUTICALS, INC., priority 2015, dated 2023).
